Consider 1 substance from article PMC11187126, “Structure and dynamics of the pyroglutamylated RF-amide peptide QRFP receptor GPR103” (Nature Communications, 2024).

As a reminder, the EC50 is the concentration at which the effect is half-maximal. Read a low EC50 as an effect from little substance.

This assay has as its target T1, GPR103 T215^5.39A (Homo sapiens, UniProt Q96P65, T215A).
T1 construct: we used human full-length QRFPR-encoding plasmids; expressed in transfected cells; host or cells: HEK293 cells (HEK293A in the flow cytometry section), pCAGGS vector
T1 sequence (Q96P65 1-431 T215A): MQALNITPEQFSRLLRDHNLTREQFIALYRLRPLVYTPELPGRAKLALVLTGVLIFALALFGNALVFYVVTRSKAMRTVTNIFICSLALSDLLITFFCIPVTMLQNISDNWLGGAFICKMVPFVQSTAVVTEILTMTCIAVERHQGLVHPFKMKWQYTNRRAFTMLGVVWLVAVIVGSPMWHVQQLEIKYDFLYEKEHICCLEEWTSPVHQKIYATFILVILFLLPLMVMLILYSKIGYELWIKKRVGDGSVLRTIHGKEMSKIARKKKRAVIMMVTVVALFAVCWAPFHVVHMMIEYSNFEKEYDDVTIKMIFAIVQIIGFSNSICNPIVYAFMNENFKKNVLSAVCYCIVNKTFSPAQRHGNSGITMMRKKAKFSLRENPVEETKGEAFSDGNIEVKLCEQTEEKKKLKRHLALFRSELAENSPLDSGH
Description: TGFα shedding assay; Exp. level WT (1:1). Format: cell-based. The method, then:
For the TGFα shedding assay and the flow cytometry analysis, we used human full-length QRFPR-encoding plasmids. Specifically, GPR103 was N-terminally modified with an HA signal sequence followed by a FLAG epitope and then a flexible linker ([…]; the FLAG epitope is underlined) and inserted into the pCAGGS vector. Plasmid encoding GPR103 mutants were generated using Quickchange Site-Directed Mutagensis kit (Agilent).
The TGFα shedding assay was performed as described previously with minor modifications. Plasmid transfection was performed in a 6-well plate with a mixture of 500 ng (per well in a 6-well plate) AP-TGFα-encoding plasmid and 200 ng GPR103-encoding plasmid. After 1-day culture, the transfected cells were harvested by trypsinization, pelleted by centrifugation at 190 × g for 5 min, and washed once with 5 mM HEPES (pH 7.4)-containing Hank’s Balanced Salt Solution (HBSS). After centrifugation, the cells were resuspended in 8 mL of the HEPES-containing HBSS. The cell suspension was seeded in a 96-well culture plate (cell plate) at a volume of 90 μL (per well hereafter) and incubated in a 37 °C incubator with 5% CO2 for 30 min. […] After spinning the cell plates at 190 × g for 2 min, 80 μL of conditioned media was transferred to an empty 96-well plate (conditioned media (CM) plate). Then, 80 μL of AP reaction solution (10 mM p-nitrophenylphosphate (p-NPP), 120 mM Tris-HCl (pH 9.5), 40 mM NaCl, and 10 mM MgCl2) was dispensed into the cell plates and the CM plates. Absorbance at 405 nm of the plates was measured using a microplate reader (SpectraMax 340 PC384, Molecular Devices) before and after 1-h incubation at room temperature. Ligand-induced AP-TGFα release was calculated by subtracting spontaneous AP-TGFα release signal from ligand-induced AP-TGFα release signal. The AP-TGFα release signals were fitted to a four-parameter sigmoidal concentration–response curve, using the Prism 10 software (GraphPad Prism). For each replicate experiment, the pEC50 parameter (negative logarithmic values of EC50 values) of the individual GPR103 mutants were normalized to that of the wild-type GPR103 performed in parallel, and resulting ∆pEC50 values were used to denote ligand response activity of the mutants. […]
Exp. le vel: WT (1:5 0)Exp. le vel: WT (1:5 0)Exp. le vel: WT (1:5 0)Exp. le vel: WT (1:2 0)Exp. le vel: WT (1:2 0)Exp. le vel: WT (1:1 0) […]
L1 4N - t e r mA F2 5N - t e r mA I 2 6N - t e r mA Y 2 9N - t e r mA C 9 82 .5 7A T10 22 .6 1A Exp . l eve l: WT (1 :5)Exp . l evel : >WT (1 :1)Exp. le vel: WT (1:2 0)Exp. le vel: WT (1:2 0)Exp. le vel: WT (1:5 0)Exp . l eve l: WT (1 :1) […]
Exp. le vel: WT (1:1 0)Exp. le vel: WT (1:2 0) C 1 1 83 .2 5AExp. le vel: WT (1:5 0)Exp. le vel: WT (1:5 0)Exp. le vel: WT (1:2 0)Exp . l eve l: WT (1 :5) […]
Exp. le vel: WT (1:5 0)Exp. le vel: WT (1:1 0)Exp. le vel: WT (1:5 0) E203ECL2AExp . l evel : >WT (1 :1)Exp. le vel: WT (1:5 0)Exp. le vel: WT (1:5 0) […]
Exp . l eve l: WT (1 :1) F28Exp. le vel: WT (1:5 0) C 2 8 56 .4 7AExp. le vel: WT (1:2 0) WExp. le vel: WT (1:2 0) F28Exp. le vel: WT (1:5 0)Exp . l evel : >WT (1 :1) […]
Exp. le vel: WT (1:5 0)Exp. le vel: WT (1:5 0) C 3 2 77 .4 8AExp . l eve l: WT (1 :5)Exp . l evel : >WT (1 :1)Exp . l evel : >WT (1 :1) […]
Suppl eme nt ary Figure 1 | Mutational analysis of GPR103. […]
mutants. Data are presented as mean values ± SEM, normally n=3-5; dots), each performed in triplicate. b-d Cell-surface expression (b) and QRFP26-in-duced activation of GPR103 (c, d) were analyzed by the flow cytometry and the TGFα shedding assay, respectively. From the concentration–response curves (a), Emax (c) and ΔpEC50 (d) values relative to the wild type were calculated. Colors in the mutant bars indicate an expression level matching to that of titrated wild type. Statistical analyses were performed using the ordinary one-way ANOVA followed by Dunnett tests with the expression-matched […]

Like-named read-outs stand apart in the source and are kept apart here. No end group written: not given here.

Consider TSGPLGNLAEELNGYSRKKGGFSFRF-NH2 [QRFP26], for which the Emax is 95.52 % WT (Exp. #1); 99.37 % WT (Exp. #2); 104.64 % WT (Exp. #3); 99.8% (mean, read-out: Emax); 103 ± 2.2% (n = 3, read-out: Emax). This substance also showed an EC50 (n = 3) of 6.46 nM.
